Measurements: ChEMBL document CHEMBL1649202, “Temporal trends of antimicrobial resistance and clonality of invasive Streptococcus pneumoniae isolates in Finland, 2002 to 2006” (2009)
Converted amounts (≈) assume the structure as drawn.

Columns and labels:
Assay type in all cases: functional
[1] = tested on: Streptococcus pneumoniae; test: Antimicrobial activity against Streptococcus pneumoniae serotype 9V ST 156 harboring ERY-resistant erm(B) or mef(E) gene by agar plate dilution method
[2] = tested on: Streptococcus pneumoniae; test: Antimicrobial activity against Streptococcus pneumoniae serotype 14 ST 156 harboring ERY-resistant mef(E) gene by agar plate dilution method
[3] = tested on: Streptococcus pneumoniae; test: Antimicrobial activity against Streptococcus pneumoniae serotype 19F ST 156 by agar plate dilution method
[4] = tested on: Streptococcus pneumoniae; test: Antimicrobial activity against Streptococcus pneumoniae serotype 14 ST 2918 by agar plate dilution method
[5] = tested on: Streptococcus pneumoniae; test: Antimicrobial activity against Streptococcus pneumoniae serotype 14 ST 3247 by agar plate dilution method
[6] = tested on: Streptococcus pneumoniae; test: Antimicrobial activity against Streptococcus pneumoniae serotype 19F ST 671 by agar plate dilution method
[7] = tested on: Streptococcus pneumoniae; test: Antimicrobial activity against Streptococcus pneumoniae serotype 19F ST 236 by agar plate dilution method
[8] = tested on: Streptococcus pneumoniae; test: Antimicrobial activity against Streptococcus pneumoniae serotype 19F ST 271 harboring ERY-resistant erm(B) and mef(E) gene by agar plate dilution method
[9] = tested on: Streptococcus pneumoniae; test: Antimicrobial activity against Streptococcus pneumoniae serotype 19F ST 2694 harboring ERY-resistant mef(E) gene by agar plate dilution method
[10] = tested on: Streptococcus pneumoniae; test: Antimicrobial activity against Streptococcus pneumoniae serotype 19F ST 3245 by agar plate dilution method
[11] = tested on: Streptococcus pneumoniae; test: Antimicrobial activity against Streptococcus pneumoniae serotype 23F ST 81 harboring ERY-resistant mef(E) gene by agar plate dilution method
[12] = tested on: Streptococcus pneumoniae; test: Antimicrobial activity against Streptococcus pneumoniae serotype 23F ST 3250 by agar plate dilution method
[13] = tested on: Streptococcus pneumoniae; test: Antimicrobial activity against Streptococcus pneumoniae serotype 14 ST 13 harboring ERY-resistant mef(E) gene by agar plate dilution method
[14] = tested on: Streptococcus pneumoniae; test: Antimicrobial activity against Streptococcus pneumoniae serotype 18C ST 496 harboring ERY-resistant erm(B) gene by agar plate dilution method
[15] = tested on: Streptococcus pneumoniae; test: Antimicrobial activity against Streptococcus pneumoniae serotype 4 ST 205 by agar plate dilution method
[16] = tested on: Streptococcus pneumoniae; test: Antimicrobial activity against Streptococcus pneumoniae serotype 6B ST 138 by agar plate dilution method
[17] = tested on: Streptococcus pneumoniae; test: Antimicrobial activity against Streptococcus pneumoniae serotype 10 ST 461 by agar plate dilution method
[18] = tested on: Streptococcus pneumoniae; test: Antimicrobial activity against Streptococcus pneumoniae serotype 17 ST 3248 by agar plate dilution method
[19] = tested on: Streptococcus pneumoniae; test: Antimicrobial activity against Streptococcus pneumoniae serotype 6B ST 3249 by agar plate dilution method
[20] = tested on: Streptococcus pneumoniae; test: Antimicrobial activity against Streptococcus pneumoniae serotype 14 ST 2306 harboring ERY-resistant erm(B) gene by agar plate dilution method
[21] = tested on: Streptococcus pneumoniae; test: Antimicrobial activity against Streptococcus pneumoniae serotype 14 ST 143 harboring ERY-resistant erm(B) gene by agar plate dilution method
[22] = tested on: Streptococcus pneumoniae; test: Antimicrobial activity against Streptococcus pneumoniae serotype 14 ST 2916 harboring ERY-resistant erm(B) gene by agar plate dilution method
[23] = tested on: Streptococcus pneumoniae; test: Antimicrobial activity against Streptococcus pneumoniae serotype 19F ST 2917 harboring ERY-resistant erm(B) and mef(E) gene by agar plate dilution method
[24] = tested on: Streptococcus pneumoniae; test: Antimicrobial activity against Streptococcus pneumoniae serotype 23F ST 961 harboring ERY-resistant erm(B) gene by agar plate dilution method
[25] = tested on: Streptococcus pneumoniae; test: Antimicrobial activity against Streptococcus pneumoniae serotype 6B ST 90 harboring ERY-resistant erm(B) gene by agar plate dilution method
[26] = tested on: Streptococcus pneumoniae; test: Antimicrobial activity against Streptococcus pneumoniae serotype 6B ST 3246 harboring ERY-resistant erm(B) gene by agar plate dilution method
[27] = tested on: Streptococcus pneumoniae; test: Antimicrobial activity against Streptococcus pneumoniae serotype 14 ST 2678 harboring ERY-resistant erm(B) gene by agar plate dilution method

Compound | MIC [1] | MIC [2] | MIC [3] | MIC [4] | MIC [5] | MIC [6] | MIC [7] | MIC [9] | MIC [10] | MIC [11] | MIC [12] | MIC [13] | MIC [15] | MIC [16] | MIC [17] | MIC [18] | MIC [19] | MIC [21] | MIC ([8]; read-out: MIC) | MIC [24] | other results
CC[C@H]1OC(=O)[C@H](C)[C@@H](O[C@H]2C[C@@](C)(OC)[C@@H](O)[C@H](C)O2)[C@H](C)[C@@H](O[C@@H]2O[C@H](C)C[C@H](N(C)C)[C@H]2O)[C@](C)(O)C[C@@H](C)C(=O)[C@H](C)[C@@H](O)[C@]1(C)O [ERYTHROMYCIN] | > 0.063 µg/mL | 0.125 µg/mL (≈ 0.17 µM) | 0.125 µg/mL (≈ 0.17 µM) | > 128 µg/mL | > 128 µg/mL | 32 µg/mL (≈ 43.6 µM) | 8 µg/mL (≈ 10.9 µM) | 8 µg/mL (≈ 10.9 µM) | > 128 µg/mL | 0.125 µg/mL (≈ 0.17 µM) | > 128 µg/mL | 16 µg/mL (≈ 21.8 µM) | 32 µg/mL (≈ 43.6 µM) | 16 µg/mL (≈ 21.8 µM) | > 128 µg/mL | > 128 µg/mL | > 128 µg/mL | – | – | – | MIC [8]: > 128 µg/mL; MIC [14]: > 128 µg/mL
CC1(C)S[C@@H]2[C@H](NC(=O)Cc3ccccc3)C(=O)N2[C@H]1C(=O)O [PENICILLIN G] | 2 µg/mL (≈ 5.98 µM) | 2 µg/mL (≈ 5.98 µM) | 2 µg/mL (≈ 5.98 µM) | 2 µg/mL (≈ 5.98 µM) | 2 µg/mL (≈ 5.98 µM) | 2 µg/mL (≈ 5.98 µM) | 2 µg/mL (≈ 5.98 µM) | 2 µg/mL (≈ 5.98 µM) | 4 µg/mL (≈ 12 µM) | 2 µg/mL (≈ 5.98 µM) | 2 µg/mL (≈ 5.98 µM) | 2 µg/mL (≈ 5.98 µM) | 2 µg/mL (≈ 5.98 µM) | 4 µg/mL (≈ 12 µM) | 2 µg/mL (≈ 5.98 µM) | 2 µg/mL (≈ 5.98 µM) | 2 µg/mL (≈ 5.98 µM) | 2 µg/mL (≈ 5.98 µM) | 2 µg/mL (≈ 5.98 µM) | 2 µg/mL (≈ 5.98 µM) | MIC [20]: 2 µg/mL (≈ 5.98 µM); MIC [22]: 2 µg/mL (≈ 5.98 µM); MIC [23]: 2 µg/mL (≈ 5.98 µM); MIC [25]: 2 µg/mL (≈ 5.98 µM); MIC [26]: 2 µg/mL (≈ 5.98 µM); MIC [27]: 2 µg/mL (≈ 5.98 µM); MIC ([14]; read-out: MIC): 2 µg/mL (≈ 5.98 µM)
CN(C)[C@@H]1C(O)=C(C(N)=O)C(=O)[C@@]2(O)C(O)=C3C(=O)c4c(O)cccc4[C@@](C)(O)[C@H]3C[C@@H]12 [TETRACYCLINE] | 0.25 µg/mL (≈ 0.563 µM) | 0.25 µg/mL (≈ 0.563 µM) | 0.25 µg/mL (≈ 0.563 µM) | 0.5 µg/mL (≈ 1.13 µM) | – | 0.5 µg/mL (≈ 1.13 µM) | – | – | – | 1 µg/mL (≈ 2.25 µM) | 16 µg/mL (≈ 36 µM) | 0.25 µg/mL (≈ 0.563 µM) | 1 µg/mL (≈ 2.25 µM) | 0.25 µg/mL (≈ 0.563 µM) | – | – | – | 0.25 µg/mL (≈ 0.563 µM) | 16 µg/mL (≈ 36 µM) | 0.25 µg/mL (≈ 0.563 µM) | MIC [25]: 0.5 µg/mL (≈ 1.13 µM); MIC ([14]; read-out: MIC): 0.25 µg/mL (≈ 0.563 µM)
